Values quoted from earlier work, collected in patent US20110091452A1, “4,5-Dihydromacbecin Derivatives and Their Use in the Treatment of Cancer or B-Cell Malignancies” (priority 2006, published 2011).

How the values were obtained:
Hsp90 = Hsp90 (Homo sapiens, UniProt P07900)
bacteria and fungi = details: in vitro
[1] = biological target: terminal deoxynucleotidyl transferase (Homo sapiens, UniProt P04053)
Sequence of terminal deoxynucleotidyl transferase (P04053 whole entry, species assumed): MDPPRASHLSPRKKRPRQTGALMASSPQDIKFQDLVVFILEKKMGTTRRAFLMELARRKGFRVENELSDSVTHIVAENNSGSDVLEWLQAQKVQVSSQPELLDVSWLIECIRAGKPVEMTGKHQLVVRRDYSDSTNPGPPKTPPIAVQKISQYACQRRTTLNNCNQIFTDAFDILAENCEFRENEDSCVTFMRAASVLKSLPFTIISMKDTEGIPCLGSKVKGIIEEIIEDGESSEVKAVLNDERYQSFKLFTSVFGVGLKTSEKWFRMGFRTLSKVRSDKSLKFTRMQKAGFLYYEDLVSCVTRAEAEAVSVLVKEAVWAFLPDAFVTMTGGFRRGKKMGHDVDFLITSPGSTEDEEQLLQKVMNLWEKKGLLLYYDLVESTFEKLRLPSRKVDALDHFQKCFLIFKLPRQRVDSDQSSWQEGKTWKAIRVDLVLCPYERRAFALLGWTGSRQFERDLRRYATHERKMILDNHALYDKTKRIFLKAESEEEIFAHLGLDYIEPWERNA

CO[C@H]1C[C@H](C)Cc2cc(O)cc(c2)NC(=O)/C=C/CC[C@H](OC)[C@@H](OC(N)=O)/C(C)=C/[C@H](C)[C@H]1O [KOSN1559]
binding affinity to Hsp90, greater than 17-AAG (Hsp90; relative to 17-AAG): 8 fold
binding affinity to Hsp90, greater than geldanamycin (Hsp90; relative to geldanamycin): 4 fold

COC1=C2C[C@@H](C)C[C@H](OC)[C@H](O)[C@@H](C)/C=C(\C)[C@H](OC(N)=O)[C@@H](OC)/C=C\C=C(/C)C(=O)NC(=CC1=O)C2=O [geldanamycin]
activity in vitro against protozoa (protozoa): strong activity
activity against bacteria and fungi (bacteria and fungi): weak activity

CO[C@H]1[C@@H](OC)C[C@H](C)[C@@H](OC)C2=CC(=O)C=C(NC(=O)/C(C)=C/C=C\[C@H](C)[C@@H](OC(N)=O)/C(C)=C/[C@@H]1C)C2=O [macbecin]
inhibition of reverse transcriptase activity (Reverse transcriptase): not inhibited
inhibition of terminal deoxynucleotidyl transferase activity [1]: not inhibited
